The target in data set [1] is T1, Calcium/calmodulin-dependent protein kinase type II subunit alpha (Rattus norvegicus, UniProt P11275). Description: Displacement of [3H]HOCPCA from native CaMK2alpha in rat brain cortical membrane homogenates measured after 1 hr by TopCount scintillation counting method. The data set is classed as cell membranes, Cortex. (In a radioligand displacement assay an active substance lowers the binding of a labelled ligand.)

The target in data set [2] is T1, Calcium/calmodulin-dependent protein kinase type II subunit alpha. The data set can be described thus: Displacement of [3H]NCS-382 from CaMK2alpha in rat brain cortical membrane homogenates measured after 1 hr by TopCount scintillation counting method. The data set is classed as cell membranes, Cortex.
Data set [3] deals with T2, Calcium/calmodulin-dependent protein kinase type II subunit alpha (Homo sapiens, UniProt Q9UQM7). Description: Binding affinity to recombinant human CaMK2alpha 6x hub domain (345 to 475 residues) Trp403 residue assessed as quenching of intrinsic tryptophan fluorescence at 9.8 to 29 uM by Trp flip assay. The settings on record: filed as modulator, dose 9.8-29 µM.
T2 sequence (Q9UQM7 whole entry, the tested form may be a part): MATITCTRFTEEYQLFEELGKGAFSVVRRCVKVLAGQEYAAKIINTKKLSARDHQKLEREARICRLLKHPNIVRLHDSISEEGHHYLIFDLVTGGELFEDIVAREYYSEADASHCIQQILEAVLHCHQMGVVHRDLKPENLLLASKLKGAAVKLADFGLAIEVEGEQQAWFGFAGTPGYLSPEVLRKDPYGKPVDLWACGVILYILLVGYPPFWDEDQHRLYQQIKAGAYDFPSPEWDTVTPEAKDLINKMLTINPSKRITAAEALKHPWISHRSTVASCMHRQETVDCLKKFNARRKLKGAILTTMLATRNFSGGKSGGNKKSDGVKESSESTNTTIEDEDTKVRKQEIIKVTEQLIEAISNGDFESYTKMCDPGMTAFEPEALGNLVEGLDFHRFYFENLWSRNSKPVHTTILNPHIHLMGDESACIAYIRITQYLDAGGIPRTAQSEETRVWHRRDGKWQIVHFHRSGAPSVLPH
Data set [4] deals with T1, Calcium/calmodulin-dependent protein kinase type II subunit alpha. Description: Displacement of [3H]HOCPCA from recombinant rat CaMK2alpha expressed in HEK293T cells measured after 1 hr by liquid scintillation counting method. The data set is classed as cell-based.
In data set [5] the test system is MDR1 (P-gp). Description: Apparent permeability across apical to basolateral side in MDCKII-MDR1 cells at 3 uM measured after 60 to 90 mins by LC-MS/MS analysis. The data set is classed as ADME, cell-based, Canis lupus familiaris. The settings on record: dog, MDCK-MDR1, time 60-90 min.
Data set [6] is described as follows: Drug concentration in C57BL/6J mouse plasma at 10 mg/kg, po by HPLC-MS/MS analysis. The data set is classed as ADME, organism-based. To be noted: in vivo.
The nature of data set [7]: Half life in ip dosed mouse. The data set is classed as ADME, organism-based. The settings on record: in vivo.
Data set [8] concerns BCRP. The data set can be described thus: Apparent permeability across basolateral to apical side in MDCK-II-BCRP cells at 3 uM measured after 60 to 90 mins by LC-MS/MS analysis. The data set is classed as ADME, cell-based, Canis lupus familiaris. The settings on record: dog, time 60-90 min.
Data set [9] in a line: Metabolic stability in human liver microsomes assessed as intrinsic clearance per mg of protein at 0.5 uM incubated in presence of NADPH regenerating system and measured for 45 mins by LC-MS/MS analysis. The data set is classed as ADME, Microsome. The settings on record: read-out: CLH. Background: Liver microsomes are a subcellular fraction often used to study metabolism.

Data set [10] concerns MDR1 (P-gp). Description: Apparent permeability across basolateral to apical side in MDCKII-MDR1 cells at 3 uM preincubated with P-gp/BCRP transporter dual inhibitor, elacridar for 15 to 30 mins followed by compound addition and measured after 60 to 90 mins by LC-MS/MS analysis. The data set is classed as ADME, cell-based, Canis lupus familiaris, MDCK-MDR1. The settings on record: dog, time 60-90 min.

Data set [11] is described as follows: Metabolic stability in mouse hepatocytes assessed as intrinsic clearance per 10^6 cells at 0.5 uM incubated in presence of NADPH regenerating system and measured for 120 mins by LC-MS/MS analysis. The data set is classed as ADME, cell-based, Hepatocyte. The settings on record: read-out: CLH.
Data set [12] relates to BCRP. Description: Apparent permeability across apical to basolateral side in MDCK-II-BCRP cells at 3 uM measured after 60 to 90 mins by LC-MS/MS analysis. The data set is classed as ADME, cell-based, Canis lupus familiaris. To be noted: dog, time 60-90 min.
The nature of data set [13]: Ratio of drug concentration in brain to plasma in C57BL/6J mouse at 10 mg/kg, po measured at 30 mins by HPLC-MS/MS analysis. The data set is classed as ADME, organism-based. The settings on record: read-out: BPR.
The nature of data set [14]: Metabolic stability in mouse liver microsomes assessed as intrinsic clearance per mg of protein at 0.5 uM incubated in presence of NADPH regenerating system and measured for 45 mins by LC-MS/MS analysis. The data set is classed as ADME, Microsome. To be noted: read-out: CLH.
Data set [15] is described as follows: Unbound brain-to-plasma partition coefficient in C57BL/6J mouse at 10 mg/kg, po measured at 30 mins by HPLC-MS/MS analysis. The settings on record: read-out: K(p,uu,brain). The data set is classed as ADME, organism-based.
In data set [16] the test system is BCRP. The data set can be described thus: Apparent permeability across apical to basolateral side in MDCK-II-BCRP cells at 3 uM preincubated with BCRP inhibitor, Ko 143 for 15 to 30 mins followed by compound addition and measured after 60 to 90 mins by LC-MS/MS analysis. The data set is classed as ADME, cell-based, Canis lupus familiaris. To be noted: dog, with Ko 143 (BCRP inhibitor; concentration not stated), time 60-90 min.

The nature of data set [17]: Drug concentration in C57BL/6J mouse brain at 10 mg/kg, po by HPLC-MS/MS analysis. The data set is classed as ADME, organism-based. To be noted: in vivo.
Data set [18] is described as follows: Metabolic stability in human hepatocytes assessed as intrinsic clearance per 10^6 cells at 0.5 uM incubated in presence of NADPH regenerating system and measured for 120 mins by LC-MS/MS analysis. To be noted: read-out: CLH. The data set is classed as ADME, cell-based, Hepatocyte.
Data set [19] relates to MDR1 (P-gp). Description: Apparent permeability across apical to basolateral side in MDCKII-MDR1 cells at 3 uM preincubated with P-gp/BCRP transporter dual inhibitor, elacridar for 15 to 30 mins followed by compound addition and measured after 60 to 90 mins by LC-MS/MS analysis. The data set is classed as ADME, cell-based, Canis lupus familiaris, MDCK-MDR1. To be noted: dog, time 60-90 min.

For data set [20], the system named is BCRP. Description: Apparent permeability across basolateral to apical side in MDCK-II-BCRP cells at 3 uM preincubated with BCRP inhibitor, Ko 143 for 15 to 30 mins followed by compound addition and measured after 60 to 90 mins by LC-MS/MS analysis. To be noted: dog, with Ko 143 (BCRP inhibitor; concentration not stated), time 60-90 min. The data set is classed as ADME, cell-based, Canis lupus familiaris.

The test system of data set [21] is MDR1 (P-gp). Description: Apparent permeability across basolateral to apical side in MDCKII-MDR1 cells at 3 uM measured after 60 to 90 mins by LC-MS/MS analysis. The data set is classed as ADME, cell-based, Canis lupus familiaris. The settings on record: dog, MDCK-MDR1, time 60-90 min.
The target of data set [22] is T2, Calcium/calmodulin-dependent protein kinase type II subunit alpha. Description: Binding affinity to recombinant human CaMK2alpha 6x hub domain (345 to 475 residues) expressed in Escherichia coli BL21 DE3 assessed as dissociation constant by surface plasmon resonance assay.
The target is the same in data set [23]. The data set can be described thus: Binding affinity to recombinant human CaMK2alpha 6x hub domain (345 to 475 residues) expressed in Escherichia coli BL21 DE3 assessed as thermal stability by measuring change in melting temperature at 5 to 1280 uM by SYPRO orange dye based differential scanning fluorimetry. The settings on record: dose 5-1280 µM. Background: Differential scanning fluorimetry follows unfolding on heating by fluorescence.

Data set [24] has the same target. The settings on record: filed as modulator.
Description: Binding affinity to recombinant human CaMK2alpha 6x hub domain (345 to 475 residues) expressed in Escherichia coli BL21 DE3 assessed as dissociation rate constant by surface plasmon resonance assay

The source made the active and inactive calls. The rule behind the calls is not given here.

T1 sequence (P11275 whole entry): as the sequence (Q9UQM7 whole entry, the tested form may be a part) above, with S324N counted along it

As for `O=C(O)/C=C1\CCCc2c(/C=C/c3ccccc3)cccc2C1O` (stereo unspecified), the Ki (in general, the dissociation constant of the complex between target and ligand, obtained from inhibition or displacement) in data set [1] amounted to 81 nM; in [2], 14000 nM. The result in data set [3] was Active.

On to `Cc1ccc2c(c1)CCC/C(=C\C(=O)O)C2O` (stereo unspecified), for which the Ki in data set [2] came out at 320 nM.

Take `O=C(O)C1=CC(O)CC1` (stereo unspecified): the Ki in data set [1] stood at 130 nM; in data set [2], 160 nM; in [4], 1800 nM.

Consider `O=C(O)/C=C1\CCCc2cc(/C=C/c3ccccc3)ccc2C1O` (stereo unspecified), for which, in data set [2], the Ki was 40 nM.

Consider `O=C(O)/C=C1\CCCc2cc(F)ccc2C1O` (stereo unspecified), for which, in [2], the Ki amounted to 110 nM.

For the molecule `O=C(O)/C=C1\CCCc2ccc(-c3ccccc3)cc2C1O` (stereo unspecified), in data set [2], the Ki turned out to be 14000 nM.

As for `O=C([O-])/C=C1\CCCc2cc(-c3ccccc3)ccc2C1O.[Na+]` (stereo unspecified), the Papp A→B (as a rule, the apparent permeability from the apical to the basolateral side of a cell layer) at 3 µM in the data set with MDR1 (P-gp) [5] came out at 13 ×10⁻⁶ cm/s; in the data set with BCRP [12] it was 15.8 ×10⁻⁶ cm/s; in the data set with BCRP [16] it was 15.9 ×10⁻⁶ cm/s; in the data set with MDR1 (P-gp) [19] it was 12.9 ×10⁻⁶ cm/s. For the same molecule, the Cp in data set [6] came out at 1450 ng/mL. Further, the half-life (in general, how long it takes for the measured level to halve) in data set [7] was 18 min. Moreover, the Papp B→A – broadly, the apparent permeability from the basolateral to the apical side of a cell layer – at 3 µM in the data set with BCRP [8] is 19.4 ×10⁻⁶ cm/s; in the data set with MDR1 (P-gp) [10] it was 15 ×10⁻⁶ cm/s; in the data set with BCRP [20], 16.5 ×10⁻⁶ cm/s; with MDR1 (P-gp) [21], 16.3 ×10⁻⁶ cm/s. Further, the microsomal CLint at 0.5 µM in data set [9] and in data set [14] was above 9.9 µL/min/mg throughout. Moreover, the hepatocyte CLint at 0.5 µM in data set [11] amounted to 65 µL/min/1e6 cells; in data set [18] it was 8.6 µL/min/1e6 cells. For the same molecule, in [13], the Kp at 0.5 h came out at 0.1. In data set [15], the Kp uu at 0.5 h came out at 0.85. The Ct in data set [17] was 99.1 ng/mL.

As to `O=C(O)/C=C1\CCCc2c(CCc3ccccc3)cccc2C1O` (stereo unspecified), the Ki in data set [2] is 56 nM.

As to `O=C(O)/C=C1\CCCc2c(/C=C/c3c(Cl)cccc3Cl)cccc2C1O` (stereo unspecified), the Ki in data set [2] turned out to be 110 nM.

In the case of `O=C(O)/C=C1\CCCc2ccccc2C1O` (stereo unspecified), the Kd (commonly the equilibrium constant for the complex coming apart) in [22] was found to be 8900 nM. Besides, in data set [23], the ΔTm (usually the change in melting temperature against a reference sample) was determined as 16.7 °C. The Kdiss in [24] was determined as 0.75 s⁻¹. Also, the Ki stood at 590 nM in data set [1], 340 nM in [2] and 3900 nM in [4].

For the molecule `O=C(O)/C=C1\CCCc2c(Br)cccc2C1O` (stereo unspecified), in data set [2], the Ki stood at 230 nM.
